The results in this text go back to ChEMBL document CHEMBL1201862, “PubChem BioAssay data set” (2004).

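96-well plates; 48 h exposure; 5 concentrations. Endpoints by linear interpolation between flanking doses. Not reached: highest tested concentration assigned. GI50: concentration for 50% inhibition of growth.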 Calls of active or inactive are those of the source. Cut-off read from the data, not from the text of the source: active = GI50 up to about 1.1 µM and inactive = higher.

Some test systems named below: A549; COLO 205; HCC 2998; HL-60; HT-29; KM12; MOLT-4; NCI-H226; OVCAR-3; OVCAR-4; SF-295; SK-MEL-2; SW-620; UO-31; NCI-H460; RXF 393; UACC-62; A498; HOP-92.
Common to all, as to assay: growth of human tumour cells (NCI), 48 h

Turning to `COc1cc(/C=C2\C(=O)N(C(=O)Cc3ccccc3)N=C2C)ccc1O`, the GI50 in the experiment with A549 was > 100 µM (inactive); with COLO 205, > 100 µM (inactive); with HCC 2998, > 100 µM (inactive); with HL-60, > 100 µM (inactive); with HT-29, > 10 µM (inactive); in the experiment on KM12, > 100 µM (inactive). For the same molecule, the GI50 in the experiment on MOLT-4, in the experiment with NCI-H226, with OVCAR-3, in the experiment on OVCAR-4, in the experiment with SF-295 and in the experiment on SK-MEL-2 was > 100 µM (inactive) in each case. Also, the GI50 in the experiment on SW-620 and with UO-31 was > 100 µM (inactive) in each case.

In the case of `Cc1ccc(Cn2c(C)nc3c2C(=O)c2ccccc2C3=O)cc1`, the GI50 in the experiment with A549 was 4.63 µM (inactive); with COLO 205 it was 15.8 µM (inactive); in the experiment on HCC 2998 it was 17.6 µM (inactive); in the experiment on HL-60, 1.91 µM (inactive); in the experiment with HT-29, 1.27 µM (inactive); in the experiment on KM12, 4.56 µM (inactive). The GI50 with MOLT-4 is 0.64 µM (active); in the experiment on NCI-H226 it was 6.9 µM (inactive); in the experiment on NCI-H460, 0.387 µM (active); with OVCAR-3, 10.6 µM (inactive); in the experiment on OVCAR-4, 13.3 µM (inactive); in the experiment with RXF 393 it was 11.4 µM (inactive). Besides, the GI50 is 7.66 µM (inactive) in the experiment with SF-295; 15.3 µM (inactive) with SK-MEL-2; 3.33 µM (inactive) with SW-620; 1.12 µM (inactive) in the experiment with UACC-62; 6.32 µM (inactive) in the experiment with UO-31.

In the case of `CC1=NC(=Cc2ccc([N+](=O)[O-])cc2)C(=O)N1n1c(-c2ccccc2)nc2ccccc2c1=O`, the GI50 in the experiment with A549 is 47.1 µM (inactive); in the experiment with COLO 205 it was 46.6 µM (inactive); in the experiment on HCC 2998, 57.9 µM (inactive); in the experiment with HL-60, 32.3 µM (inactive); in the experiment on HT-29 it was 37 µM (inactive); in the experiment on KM12 it was 35.6 µM (inactive). In addition, the GI50 in the experiment on MOLT-4 is 28.8 µM (inactive); in the experiment on NCI-H226, 95.9 µM (inactive); in the experiment with SF-295, 52 µM (inactive); with SW-620 it was 36.7 µM (inactive); in the experiment on UACC-62, 43.3 µM (inactive); in the experiment with UO-31, 31.6 µM (inactive).

`CC1(C)CC(/C=C2/OC(=O)c3ccccc32)=C(C#N)C(=O)O1`: the GI50 in the experiment on A549 was > 100 µM (inactive); with COLO 205 it was > 100 µM (inactive); in the experiment with HCC 2998 it was 0.294 µM (active); with HT-29 it was > 100 µM (inactive); in the experiment on KM12, > 100 µM (inactive); with MOLT-4, > 100 µM (inactive). Besides, the GI50 was > 100 µM (inactive) in the experiment with NCI-H226; > 100 µM (inactive) in the experiment with NCI-H460; > 100 µM (inactive) in the experiment with OVCAR-3; 18.6 µM (inactive) in the experiment with OVCAR-4; > 100 µM (inactive) in the experiment on SF-295; > 100 µM (inactive) with SK-MEL-2. Also, the GI50 in the experiment on SW-620, in the experiment on UACC-62 and in the experiment on UO-31 was > 100 µM (inactive) in each case.

In the case of `c1ccc2c(c1)[nH]c1nc3cc(-c4ccc5nc6c(nc5c4)[nH]c4ccccc46)ccc3nc12`, the GI50 is > 100 µM (inactive) in the experiment with A498; > 100 µM (inactive) in the experiment on A549; > 79.1 µM (inactive) in the experiment on HCC 2998; 20.9 µM (inactive) with HL-60; > 100 µM (inactive) in the experiment with HT-29; > 100 µM (inactive) in the experiment on KM12. The GI50 is 0.166 µM (active) in the experiment with MOLT-4; > 100 µM (inactive) in the experiment with NCI-H226; > 33.5 µM (inactive) with NCI-H460; > 100 µM (inactive) in the experiment with OVCAR-4; > 100 µM (inactive) in the experiment on RXF 393; > 100 µM (inactive) in the experiment on SF-295. Moreover, the GI50 is > 100 µM (inactive) in the experiment on SK-MEL-2, > 100 µM (inactive) with SW-620, > 72.9 µM (inactive) in the experiment with UACC-62 and > 100 µM (inactive) in the experiment on UO-31.

In the case of `COc1cc(Nc2nc3ccccc3nc2-c2cccs2)cc(OC)c1OC`, the GI50 in the experiment with A549 is 21 µM (inactive); in the experiment on COLO 205, > 10 µM (inactive); with HCC 2998, 36.4 µM (inactive); with HL-60, 15.2 µM (inactive); with HOP-92, 13.9 µM (inactive); in the experiment with HT-29 it was 41.7 µM (inactive). Further, the GI50 was 12.9 µM (inactive) with MOLT-4; 66.7 µM (inactive) with NCI-H226; 33.7 µM (inactive) with NCI-H460; 43.8 µM (inactive) with OVCAR-3; 16.6 µM (inactive) in the experiment with RXF 393; 22.8 µM (inactive) in the experiment on SF-295. The GI50 in the experiment on SK-MEL-2 is 85.3 µM (inactive); in the experiment with SW-620, 50.4 µM (inactive); in the experiment with UACC-62 it was 36.2 µM (inactive); with UO-31 it was > 10 µM (inactive).

Regarding `O=C(O)C1=C(Cl)c2ccccc2S1(=O)=O`, the GI50 with A549, with COLO 205, with HCC 2998, with HL-60, in the experiment on HOP-92 and in the experiment with KM12 was > 100 µM (inactive) in each case. Besides, the GI50 in the experiment on MOLT-4 was > 100 µM (inactive); in the experiment on NCI-H460, > 100 µM (inactive); in the experiment on OVCAR-3, > 10 µM (inactive); in the experiment with OVCAR-4, > 100 µM (inactive); in the experiment on RXF 393 it was > 100 µM (inactive); with SF-295 it was > 100 µM (inactive). Besides, the GI50 in the experiment on SK-MEL-2, in the experiment on SW-620, in the experiment on UACC-62 and in the experiment on UO-31 was > 100 µM (inactive) in each case.

For `O=C1C(C2=[N+]([O-])c3ccccc3C2=O)=[N+]([O-])c2ccccc21`, the GI50 with A498 was 25.4 µM (inactive); with A549 it was 26.4 µM (inactive); in the experiment on COLO 205, 17.7 µM (inactive); in the experiment on HL-60, 19.4 µM (inactive); in the experiment with HT-29 it was 32.8 µM (inactive); in the experiment with KM12 it was > 10 µM (inactive). For the same molecule, the GI50 was 15.3 µM (inactive) in the experiment on MOLT-4; 25.5 µM (inactive) in the experiment on NCI-H226; 23.1 µM (inactive) in the experiment on NCI-H460; 16.3 µM (inactive) in the experiment with OVCAR-3; 14.5 µM (inactive) in the experiment on OVCAR-4; 31.9 µM (inactive) in the experiment with RXF 393. The GI50 was 40.7 µM (inactive) in the experiment on SF-295, 21.8 µM (inactive) with SW-620, > 10 µM (inactive) in the experiment on UACC-62 and 43.1 µM (inactive) in the experiment with UO-31.

For the molecule `Cc1cc(O)nc(NNC(C#N)c2ccco2)n1` (stereo not drawn), the GI50 in the experiment on A549, with COLO 205, with HL-60, in the experiment with HOP-92, in the experiment with HT-29 and in the experiment on KM12 was > 100 µM (inactive) throughout. Moreover, the GI50 in the experiment with MOLT-4, with NCI-H226, in the experiment on NCI-H460, in the experiment with OVCAR-3, in the experiment with OVCAR-4 and in the experiment with RXF 393 was > 100 µM (inactive) throughout. The GI50 in the experiment with SF-295, with SK-MEL-2, in the experiment with SW-620, with UACC-62 and in the experiment on UO-31 was > 100 µM (inactive) throughout.

As to `COC12C=CC(CC1)c1c(O)ccc(O)c12` (stereo not drawn), the GI50 was > 100 µM (inactive) in the experiment on A498; > 92.5 µM (inactive) in the experiment with A549; 22.6 µM (inactive) in the experiment on COLO 205; 99.3 µM (inactive) in the experiment on HCC 2998; 2.39 µM (inactive) in the experiment with HL-60; 64.9 µM (inactive) with HT-29. Moreover, the GI50 is > 95.1 µM (inactive) in the experiment with KM12; 22.8 µM (inactive) in the experiment with MOLT-4; 39.1 µM (inactive) in the experiment on NCI-H226; 52.8 µM (inactive) with NCI-H460; 21.8 µM (inactive) in the experiment with OVCAR-3; 19.6 µM (inactive) in the experiment on OVCAR-4. The GI50 in the experiment on RXF 393 is > 79.6 µM (inactive); in the experiment on SF-295 it was > 90.8 µM (inactive); in the experiment on SK-MEL-2, 42.9 µM (inactive); with SW-620 it was 27.5 µM (inactive); in the experiment with UACC-62 it was 27.3 µM (inactive); in the experiment on UO-31 it was > 80.7 µM (inactive).

In the case of `CC(=O)Oc1cc(OC(C)=O)c(OC(C)=O)c2c1CC1C(=O)C3(CCc4ccccc43)C(=O)C1C2` (stereo not drawn), the GI50 in the experiment with A549 is 19.5 µM (inactive); in the experiment on COLO 205 it was 19.6 µM (inactive); in the experiment with HCC 2998 it was 6.7 µM (inactive); in the experiment on HL-60, 4.53 µM (inactive); in the experiment with HOP-92 it was > 100 µM (inactive); in the experiment on HT-29, 20.7 µM (inactive). The GI50 in the experiment on NCI-H460 is 13.9 µM (inactive); in the experiment with OVCAR-3, 4.82 µM (inactive); with OVCAR-4, 11.7 µM (inactive); in the experiment with RXF 393, 15 µM (inactive); in the experiment with SF-295, 4.61 µM (inactive); with SW-620, 17.9 µM (inactive). Besides, the GI50 in the experiment on UACC-62 is 14.5 µM (inactive); in the experiment on UO-31, 22.1 µM (inactive).

As for `O=C(O)CCCc1cc2c(s1)-c1cccc3cccc-2c13`, the GI50 is 36.6 µM (inactive) with A549; 20.3 µM (inactive) in the experiment with COLO 205; 24.3 µM (inactive) in the experiment with HCC 2998; 22.4 µM (inactive) in the experiment on HL-60; 17.7 µM (inactive) in the experiment with HOP-92; > 100 µM (inactive) in the experiment on HT-29. Also, the GI50 in the experiment on KM12 was 19.4 µM (inactive); in the experiment on MOLT-4, 24.1 µM (inactive); in the experiment on NCI-H226 it was 84.9 µM (inactive); in the experiment on NCI-H460 it was > 100 µM (inactive); in the experiment with OVCAR-3, 19.1 µM (inactive); with OVCAR-4 it was 76.9 µM (inactive). Also, the GI50 is 50.1 µM (inactive) in the experiment with SF-295; 20.4 µM (inactive) in the experiment on SK-MEL-2; 36.2 µM (inactive) with SW-620; 21.3 µM (inactive) in the experiment on UACC-62; 17 µM (inactive) with UO-31.
